Assay results from the METLIN SMRT retention time set (Domingo-Almenara et al. 2019).

Assay: gradient 5% acetonitrile 3 min, to 50% in 2 min, to 85% in 15 min, held 3 min, 100 µL/min
Conditions: column: Zorbax Extend-C18 2.1 x 50 mm; eluents: water / acetonitrile, 0.1% formic acid
How it was run: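 Retention times of pure standards were taken from adduct peaks that were selected by computer and manually inspected. Over 3 months, mixtures of ~100 molecules were run by HPLC–quadrupole time-of-flight mass spectrometry in positive and negative ionization mode. The Zorbax Extend-C18 column (2.1 × 50 mm, 1.8 μm) ran at 100 μL/min in water and acetonitrile, each containing 0.1% formic acid, with 40 μL dead volume and 900 μL dwell volume.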

| RP-LC retention time | SMILES |
| --- | --- |
| 776 s | COc1ccc(-n2ccc(=O)c(-c3nc(-c4ccccc4OC)no3)n2)cc1 |
| 753 s | CCCNC(=O)c1cc(C)nc2c(Cl)cccc12 |
| 595 s | O=C(c1ccco1)N1CCC(OC2CCN(Cc3ccccc3)CC2)CC1 |
| 629 s | COC(=O)CNC(=O)Nc1ccc2nc(-c3ccccc3)cc(OC)c2c1 |
| 1240 s | CC(C)(C)c1ccc2c(c1)N(Cc1nc(-c3cccc(F)c3)no1)C(=O)CO2 |
| 885 s | COc1cccc(-c2noc(C3CC(=O)N(c4ccc(F)cc4)C3)n2)c1OC (stereo not drawn) |
| 715 s | COc1ccc(C(=O)N2CCC3(CC2)NC(=O)c2ccc(F)cc2N3C)c(OC)c1 |
| 686 s | COc1ccc(-c2cn3c(CC(=O)NCc4ccc(C)o4)csc3n2)cc1OC |
| 596 s | COc1nccnc1N1CCC(NC(=O)Cc2c(C)noc2C)C1 (stereo not drawn) |
| 966 s | CCc1csc(-c2ccc(N3CCN(C(=O)c4nn(C)c5ccccc45)CC3)nc2)n1 |
| 689 s | COc1ccc(OC)c(CNC(=O)CN2C(=O)C(C)(C)c3cc(C)ccc32)c1 |
| 757 s | COc1ccccc1CNC(=O)c1cn(-c2cc(N3CCOCC3)ncn2)cn1 |
| 605 s | COc1ccc2c(=O)c(Oc3ccc(C(=O)Nc4cccnc4)cc3)coc2c1 |
| 1040 s | CCCN1C(=O)COc2ccc(-c3csc(NC(=O)c4ccc(OC)cc4)n3)cc21 |
| 605 s | O=C(CN1CCN(Cc2ccccc2F)C1=O)NCc1ccc(N2CCCCC2)cc1 |
| 748 s | CC(=O)N1CCc2cc(N3CC(C(=O)NCc4ccc(C(F)(F)F)cc4)CC3=O)ccc21 (stereo not drawn) |
| 783 s | Cc1noc2nc(C)n(CC(=O)NCc3ccc(Cl)cc3)c(=O)c12 |
| 684 s | COc1ccc(CCO[C@@H]2CCCC[C@H]2N2CC[C@@H](O)C2)cc1OC |
| 1320 s | CCCCn1c(=O)c2ccccc2n(Cc2nc(-c3ccc(F)c(Br)c3)no2)c1=O |
| 980 s | O=S(=O)(NCc1ccco1)c1ccc(Cl)c(-c2nnc(-c3ccccc3)o2)c1 |
| 847 s | COc1cccc(N2CCN(c3ccc(S(=O)(=O)C(C)C)nn3)CC2)c1 |
| 604 s | CC(C)CNC(=O)N1CCn2nnc(CCC(=O)N3CCOCC3)c2C1 |

| RP-LC retention time | SMILES |
| --- | --- |
| 692 s | Cc1cccc(CNC(=O)CCC(=O)N2CCSc3nc(C)cc(C)c32)c1 |
| 694 s | Cc1cc(C(=O)Nc2nnc(CCSc3ccccc3)o2)on1 |
| 797 s | O=C(Cn1cccc(-c2nc(-c3ccc(F)cc3)no2)c1=O)NC1CCCC1 |
| 917 s | COc1ccc(-c2nc(-c3nnn(-c4ccc(F)cc4)c3C)no2)cc1OC |
| 860 s | Cc1ccccc1Nc1c(-c2ccc3c(c2)OCO3)nc2cnccn12 |
| 1140 s | COc1cccc(S(=O)(=O)N2CCC(c3noc(-c4ccccc4C)n3)CC2)c1 |
| 784 s | O=C(Nc1ccccc1)N1CCC(n2cnc3cc(Cl)ccc3c2=O)CC1 |
| 1110 s | COc1ccc(-c2csc(C)n2)cc1S(=O)(=O)N1CCN(c2ccccc2F)CC1 |
| 1220 s | Cc1noc(C)c1S(=O)(=O)N1CCC2(CC1)CC(CCOc1ccc(F)cc1)CCO2 (stereo not drawn) |
| 590 s | Cn1cc(C(CNS(=O)(=O)c2cnc[nH]2)c2cccnc2)c2ccccc21 (stereo not drawn) |
| 746 s | CCC(C)(C)NC(=O)C1CCN(S(=O)(=O)c2c(C)[nH]c(C)c2C(=O)N2CCCCC2)CC1 |
| 930 s | CCOC(=O)c1c(C)[nH]c(C(=O)N2CCCC(C(=O)NCc3ccc(OC(C)C)cc3)C2)c1C (stereo not drawn) |
| 1090 s | CCOC(=O)C1CCN(S(=O)(=O)c2cccc(-c3nnc(-c4ccc(C)cc4)o3)c2)CC1 |
| 929 s | Cc1cc(C)n(-c2ccc(C(=O)NCc3ccc(F)cc3F)cn2)n1 |
| 817 s | COc1ccccc1-c1noc(CCn2nc(-c3ccccc3)ccc2=O)n1 |
| 638 s | COc1ccc(OC)c(CNC(=O)c2c(C)oc3c2C2=NCCN2C=N3)c1 |
| 667 s | COCCOCc1nc(C2CCCCN2C(=O)NC(C)C)no1 (stereo not drawn) |
| 650 s | CC1CCN(C(=O)Cn2c(CNC(=O)c3ccco3)nc3ccccc32)CC1 |
| 719 s | Cc1ccn2c(Nc3ccc4c(c3)OCCO4)c(-c3ccc(O)cc3)nc2c1 |
| 630 s | COc1cc2c(cc1OC)C(C(=O)NCc1cccnc1)C(c1ccc(SC)cc1)N(C)C2=O (stereo not drawn) |
| 620 s | Cc1ccc(=O)n(CCNC(=O)Cc2cn(C)c3ccccc23)n1 |
| 994 s | COc1cccc(Cc2nc(-c3cn(-c4ccc(F)cc4)nn3)no2)c1 |

| RP-LC retention time | SMILES |
| --- | --- |
| 654 s | CCS(=O)(=O)N1CCN(C(=O)c2cc(-c3ccc(OC)cc3)n[nH]2)CC1 |
| 885 s | O=C(Cn1c(=O)c(CCC(=O)NC2CCCC2)nc2ccccc21)Nc1ccc(Cl)cc1F |
| 867 s | COc1ccc(OC)c(CNC(=O)C2c3ccccc3C(=O)N3CCc4ccccc4C23)c1 (stereo not drawn) |
| 1070 s | COc1ccc(CCNS(=O)(=O)c2cccc(-c3nc(-c4ccccc4)no3)c2)cc1OC |
| 924 s | CC1(C)CC(=O)C2=C(C1)Nc1ccccc1N(CC(=O)Nc1cccc(F)c1)C2c1ccco1 (stereo not drawn) |
| 884 s | Cc1ccsc1C(=O)Nc1nnc(SCc2nnc(-c3ccc4c(c3)OCO4)o2)s1 |
| 845 s | Cc1[nH]c(C(=O)Nc2ccc(F)cc2)c(C)c1S(=O)(=O)N1CCCC1 |
| 830 s | CCn1ncn2cc(S(=O)(=O)Nc3ccccc3F)cc2c1=O |
| 1010 s | Fc1ccc(Cn2cc(-c3noc(-c4cccc(F)c4)n3)nn2)cc1 |
| 773 s | CCn1nccc1C(=O)NCCn1c(=O)n(Cc2ccc(C)cc2)c2cccnc21 |
| 1030 s | CCOc1ccccc1NC(=O)C1CCN(S(=O)(=O)c2c(C)nn(-c3ccccc3)c2C)CC1 |
| 788 s | COc1ccc(OC)c(NC(=O)NC2CCN(c3ccccc3)C2=O)c1 (stereo not drawn) |
| 604 s | COc1ccccc1NC(=O)N1CCc2nc(CNC(=O)C3CCC3)n(C)c2C1 |
| 753 s | COC(=O)[C@H](Cc1c[nH]c2ccccc12)NC(=O)c1cccc(-n2cnnn2)c1 |
| 662 s | COCC(=O)N1CCCN(C2=NS(=O)(=O)C(c3ccccc3)=C2C)CC1 |
| 1060 s | CCc1cc(-c2csc(S(=O)(=O)NCCCc3ccccc3)c2)on1 |
| 796 s | O=C(NC1CCN(c2cc(-c3cccs3)[nH]n2)C1)c1cccc(Br)c1 (stereo not drawn) |
| 589 s | O=C(NCc1cccc(F)c1)N1CCC(OC2CCN(Cc3ccccc3)CC2)CC1 |
| 861 s | O=C(c1ccco1)N1CCCn2nc(-c3cccc(Cl)c3)cc2C1 |
| 636 s | COc1nn(C)cc1C(=O)NCC(=O)Nc1cccc2nsnc12 |
| 1220 s | O=C(Nc1ccc(Br)cc1)C1CCCN(c2nccnc2Sc2ccccc2)C1 (stereo not drawn) |
| 652 s | CN1CCc2nc(C(=O)N[C@@H]3C[C@@H](C(=O)N(C)C)CC[C@@H]3NC(=O)C(=O)Nc3ccc(Cl)cn3)sc2C1 |

| RP-LC retention time | SMILES |
| --- | --- |
| 706 s | O=C(CCn1cnc2cc(-c3noc(-c4ccc(F)cc4)n3)ccc21)N1CCOCC1 |
| 754 s | Cc1cc(Nc2nc(C(=O)N3CCN(c4ccccn4)CC3)cc3occc23)ccc1Br |
| 767 s | CC(C)c1cc(C(=O)N2CCCCC2)nc2ccnn12 |
| 1380 s | CCOC(=O)c1cnc(N2CCN(c3ccc(Cl)cc3)CC2)nc1C |
| 749 s | O=C1CCCc2cc(S(=O)(=O)N3CCC(C(=O)Nc4ccc(F)cc4)CC3)ccc2N1 |
| 734 s | Cn1cc(CC(=O)NCC2CCCCC2)c2cccnc21 |
| 711 s | COc1ccc(NC(=O)c2c(C)oc3nc(C)nc(N4CCOCC4)c23)cc1OC |
| 754 s | COC(=O)c1c(C)[nH]c(C(=O)N2CCC(CC(=O)N3CCN(c4cccc(C)c4)C(C)C3)CC2)c1C (stereo not drawn) |
| 715 s | COc1ccc(-c2ncccc2CNS(=O)(=O)c2ccc(C)cc2C)cc1 |
| 898 s | CC(C)c1ccc(NC(=O)CN2C(=O)CC(C)(C)S(=O)(=O)c3ccccc32)cc1 |
| 868 s | COc1cccc2nc3cc(C)c(C)cc3nc12 |
| 711 s | C=CCNC(=O)c1cn(-c2cc(-c3nc(C)no3)ccn2)cn1 |
| 783 s | O=C(Nc1nccs1)c1ccc(Br)cc1F |
| 740 s | CC1CCN(CCCNc2ccc(-c3nc(-c4ccc(F)cc4)no3)cn2)CC1 |
| 801 s | Cc1nnc2sc(SCc3ccc(C(F)(F)F)cc3)nn2c1=O |
| 642 s | Cn1ncc(N2CCC(C(=O)Nc3ccc4oc(-c5ccncc5)nc4c3)C2)cc1=O (stereo not drawn) |
| 855 s | Cc1cc(NC2CCCC2)n2nc(-c3ccc(Cl)cc3)c(C)c2n1 |
| 626 s | COc1ccc(N2CCN(C(=O)C3CCc4nc(N5CCCC5)ncc4C3)CC2)cc1 (stereo not drawn) |
| 618 s | Cc1ccc(C)c(NC(=O)CSc2nncn2C)c1 |
| 1080 s | O=S(=O)(Cc1ccccc1)N1CCC2(CC1)CC(OCc1ccccc1)CCO2 (stereo not drawn) |
| 554 s | COCCNC(=O)Cn1c(CO)cnc1SCC(=O)Nc1ccc2c(c1)OCCO2 |

| SMILES | RP-LC retention time |
| --- | --- |
| COc1ccc2c(c1)C1(CCN(S(=O)(=O)c3ccc(Cl)cc3)C1)C(=O)N2 (stereo not drawn) | 894 s |
